The subject of series [1] is Trypanosoma brucei brucei. The series is described as follows: Antitrypanosomal activity against Trypanosoma brucei brucei. The series is classed as functional, organism-based.
The subject of the next series is MDR1 (P-gp). The experiment in a line: Apparent permeability of the compound across MDCK cells expressing human MDR1 in absence of P-gp inhibitor GF120918. The class given is ADME, cell-based, Canis lupus familiaris. Conditions: dog.
The subject of series [2] is Trypanosoma brucei brucei. The experiment in a line: Antitrypanosomal activity against Trypanosoma brucei brucei in nonCNS acute HAT mouse model assessed as cure rate. The class given is functional.
Series [3] concerns MDCK. The series is described as follows: Absorption quotient of the compound across MDCK cells expressing human MDR1. The class given is ADME, cell-based, Canis lupus familiaris. Conditions: dog.
A further series relates to L929. The experiment in a line: Cytotoxicity against mouse L929 cells. The series is classed as cell-based.
Series [4] is described as follows: Aqueous solubility of the compound. The series is classed as physicochemical. Conditions: buffer.
Series [5] in a line: Half life in S9 microsomes. The series is classed as ADME, subcellular, S9 fraction.
The subject of series [6] is Trypanosoma brucei brucei. The series is described as follows: Antitrypanosomal activity against Trypanosoma brucei brucei infected in nonCNS acute HAT mouse model assessed as cure rate at 20 mg/kg, ip administered after 30 days. The class given is functional. Conditions: route intraperitoneal.
Series [7] concerns Trypanosoma brucei brucei. The series is described as follows: Antitrypanosomal activity against Trypanosoma brucei brucei infected in nonCNS acute HAT mouse model assessed as cure rate at 20 mg/kg, po administered after 30 days. The series is classed as functional.
Series [8] concerns MDCK. The experiment in a line: Permeability of the compound across MDCK cells expressing human MDR1. Conditions: dog. The series is classed as ADME, cell-based, Canis lupus familiaris.

≈ marks a conversion by molar mass, not a printed value.

For orientation: IC50 means the concentration that gives 50% inhibition. A word on the Papp: it is a coefficient for how fast a substance crosses the barrier. Molecule `COc1ccc(F)cc1C(=O)c1cnc(NC2CCN(S(C)(=O)=O)CC2)nc1` showed an IC50 in series [1] of 570 nM. In the series with MDR1 (P-gp), the Papp was 56.1 ×10⁻⁶ cm/s. The Activity in series [2] was determined as 66%. Moreover, the AQ with MDCK [3] worked out at 0.18.

What is called solubility is the concentration that dissolves in the medium under given conditions. Usually half-life stands for how long it takes for the measured level to halve. A high value points to slow loss. With `COc1ccccc1C(=O)c1cnc(NC2CCN(C(=O)Cc3ccccc3)CC2)nc1N`, the IC50 in [1] was 340 nM; in the series with L929, 20000 nM. Moreover, in series [4], the solubility was determined as 6 µM (≈ 2.67 µg/mL). In [5], this molecule had a half-life of 0.533 h.

For the molecule `COc1ccccc1C(=O)c1cnc(NC2CCN(S(=O)(=O)Cc3ccccc3)CC2)nc1N`, the results for the IC50 (in series [1]; in the series with L929) were 370 nM and 9100 nM, respectively. For the same molecule, the concentration in solution in series [4] (solubility) came to 2 µM (≈ 0.963 µg/mL). Moreover, the half-life in series [5] was found to be 0.133 h.

For `COc1ccccc1C(=O)c1cnc(NC2CCN(C(=O)Nc3ccccc3)CC2)nc1N`, the values for the IC50 (in series [1]; in the series on L929) were 45 nM and 7500 nM, respectively. The molecule also came in with a solubility in [4] of 25 µM (≈ 11.2 µg/mL). Besides, the half-life in [5] stood at 1.6 h. Moreover, the Activity in series [6] and in series [7] was 100% each time. For the same molecule, the permeability entry in the series with MDCK [8] is reported as “impermeable”. Moreover, the Papp in the series with MDR1 (P-gp) came out at 15.1 ×10⁻⁶ cm/s. Also, the AQ with MDCK [3] came out at 0.63.

For the molecule `COc1ccccc1C(=O)c1cnc(NC2CCN(c3nc4ccccc4[nH]3)CC2)nc1N`, the figures for the IC50 (in series [1]; with L929) were 88 nM and 7600 nM, respectively. In series [4], this molecule returned a solubility of 13 µM (≈ 5.77 µg/mL). The half-life in series [5] amounted to 1.6 h.

Take `COc1ccccc1C(=O)c1cnc(NC2CCN(c3nc4ccccc4n3C)CC2)nc1N`: the figures for the IC50 (in series [1]; with L929) were 1530 nM and above 22000 nM, respectively.

`COc1ccccc1C(=O)c1cnc(NC2CCN(c3nc4ccccc4s3)CC2)nc1N`: the IC50 in series [1] came to 290 nM; with L929, 15000 nM. This molecule returned a half-life in [5] of 0.667 h.

As to `COc1ccccc1C(=O)c1cnc(NC2CCN(c3nccs3)CC2)nc1N`, the IC50 in series [1] is 3100 nM; with L929, above 24000 nM.

As to `COc1ccccc1C(=O)c1cnc(NC2CCN(C(=O)Nc3ccccc3F)CC2)nc1N`, the IC50 amounted to 130 nM in series [1] and 4100 nM in the series on L929.

For `COc1ccccc1C(=O)c1cnc(NC2CCN(C(=O)Nc3cccc(F)c3)CC2)nc1N`, the IC50 in series [1] came to 43 nM; in the series on L929 it was 9300 nM. The molecule further returned a solubility in series [4] of 13 µM (≈ 6.04 µg/mL). The molecule further returned a half-life in [5] of 2.82 h.

With `COc1ccccc1C(=O)c1cnc(NC2CCN(C(=O)Nc3ccc(F)cc3)CC2)nc1N`, the IC50 in series [1] was determined as 65 nM; with L929 it was 4600 nM. For the same molecule, in [4], the solubility was 25 µM (≈ 11.6 µg/mL). In series [5], this molecule showed a half-life of 2.53 h.

Take `COc1ccccc1C(=O)c1cnc(NC2CCN(C(=O)Nc3ccccc3C)CC2)nc1N`: the IC50 is 410 nM in series [1] and 10000 nM with L929.

Consider `COc1ccccc1C(=O)c1cnc(NC2CCN(C(=O)Nc3cccc(C)c3)CC2)nc1N`, for which the figures for the IC50 (in series [1]; in the series with L929) were 110 nM and 7100 nM, respectively.

For `COc1ccccc1C(=O)c1cnc(NC2CCN(C(=O)Nc3ccc(C)cc3)CC2)nc1N`, the IC50 in series [1] is 110 nM; in the series on L929, 2900 nM.

Regarding `COc1ccccc1NC(=O)N1CCC(Nc2ncc(C(=O)c3ccccc3OC)c(N)n2)CC1`, the IC50 in series [1] was determined as 190 nM; in the series on L929 it was 1200 nM.

Regarding `COc1cccc(NC(=O)N2CCC(Nc3ncc(C(=O)c4ccccc4OC)c(N)n3)CC2)c1`, the IC50 in series [1] was found to be 290 nM; in the series on L929, 6900 nM.

For the molecule `COc1ccc(NC(=O)N2CCC(Nc3ncc(C(=O)c4ccccc4OC)c(N)n3)CC2)cc1`, the IC50 in [1] was determined as 360 nM; in the series with L929, 3400 nM.

In the case of `COc1ccccc1C(=O)c1cnc(N[C@H]2CC[C@@H](C(=O)Nc3ccccc3)CC2)nc1N`, the IC50 in [1] was above 11000 nM; with L929, above 22000 nM.

For the molecule `COc1ccccc1C(=O)c1cnc(N[C@H]2CC[C@H](C(=O)Nc3ccccc3)CC2)nc1N`, the IC50 (in series [1]; in the series on L929) was 4600 nM each time.

With `COc1ccccc1C(=O)c1cnc(NCCCNC(=O)Nc2ccccc2)nc1N`, the results for the IC50 (in [1]; with L929) were 4500 nM and 11000 nM, respectively.

With `COc1ccccc1C(=O)c1cnc(N2CCN(C(=O)Nc3ccccc3)CC2)nc1N`, the IC50 is above 12000 nM in series [1] and above 27000 nM with L929.

Take `COc1ccccc1C(=O)c1cnc(NC2CCN(C(=O)Nc3ccccc3)C2)nc1N` (stereo not drawn): the IC50 in series [1] is 5500 nM; in the series on L929, 13000 nM.

On to `CS(=O)(=O)N1CCC(Nc2ncc(C(=O)c3ccccc3)c(N)n2)CC1`, for which the IC50 in series [1] is 7400 nM.

`Cc1ccccc1C(=O)c1cnc(NC2CCN(S(C)(=O)=O)CC2)nc1N` showed an IC50 in series [1] of 1800 nM.

In [1], `COc1cccc(C(=O)c2cnc(NC3CCN(S(C)(=O)=O)CC3)nc2N)c1` returned an IC50 of 10000 nM.

In series [1], `COc1ccc(C(=O)c2cnc(NC3CCN(S(C)(=O)=O)CC3)nc2N)cc1` gave an IC50 above 12000 nM.

In [1], `COc1ccc(F)cc1C(=O)c1cnc(NC2CCN(C(=O)Nc3ccccc3)CC2)nc1N` gave an IC50 of 30 nM.

Consider `CCc1ccccc1C(=O)c1cnc(NC2CCN(C(=O)Nc3ccccc3)CC2)nc1N`, for which the IC50 in [1] was found to be 170 nM.

The molecule `CCOc1ccccc1C(=O)c1cnc(NC2CCN(C(=O)Nc3ccccc3)CC2)nc1N` had an IC50 in series [1] of 260 nM.

With `COc1ccccc1C(=O)c1cnc(NC2CCN(C(=O)Nc3ccccc3)CC2)nc1`, in series [1], 330 nM corresponded to half-maximal inhibition (IC50). This molecule also displayed a half-life in series [5] of 2.8 h. Further, the Papp in the series with MDR1 (P-gp) was 39.8 ×10⁻⁶ cm/s. In addition, the Activity in [2] came to 33%. Also, in the series with MDCK [3], the AQ came to 0.14.

In the case of `COc1ccccc1C(=O)c1cnc(NC2CCN(C(=O)Nc3ccccc3)CC2)nc1C`, in series [1], half-maximal inhibition (IC50) required 1600 nM. The same molecule registered a half-life in series [5] of 1.22 h.

Molecule `COc1ccccc1C(=O)c1cnc(NC2CCN(c3nc4ccccc4[nH]3)CC2)nc1` yielded an IC50 in [1] of 310 nM. The half-life in [5] is 0.75 h. Further, the Papp in the series with MDR1 (P-gp) turned out to be 11.4 ×10⁻⁶ cm/s. For the same molecule, in the series on MDCK [3], the AQ came out at 0.77.

In turn, `COc1ccccc1C(=O)c1cnc(NC2CCN(S(C)(=O)=O)CC2)nc1` had an IC50 in series [1] of 1800 nM. In addition, in series [5], the half-life turned out to be 3.72 h.

In turn, `COc1ccccc1C(=O)c1cnc(NC2CCN(S(C)(=O)=O)CC2)nc1C` yielded an IC50 in [1] above 12000 nM. Further, the half-life in [5] is 7.23 h.

In the case of `COc1ccccc1C(=O)c1cnc(NC2CCN(S(C)(=O)=O)CC2)nc1N`, the IC50 in series [1] worked out at 660 nM; in the series with L929, 11000 nM. In series [4], this molecule gave a solubility of 50 µM (≈ 20.3 µg/mL). The half-life in [5] was above 5.83 h. For the same molecule, the Activity in series [6] and in [7] was 100% in each case. In the series on MDCK [8], the permeability result was “impermeable”.

As to `COc1ccccc1C(=O)c1cnc(NC2CCN(C(C)=O)CC2)nc1N`, the IC50 in series [1] is 3300 nM; with L929, above 27000 nM.

The molecule `COc1ccc(F)cc1C(=O)c1cnc(NC2CCN(S(C)(=O)=O)CC2)nc1N` showed an IC50 in series [1] of 170 nM. For the same molecule, the half-life in [5] is above 5.83 h. Moreover, the Activity in [6] and in [7] was 100% in each case. The permeability entry in the series on MDCK [8] is given as “impermeable”. In the series with MDR1 (P-gp), the apparent permeability (Papp) was determined as 27.2 ×10⁻⁶ cm/s. Moreover, the AQ in the series on MDCK [3] was 0.49.

In series [1], `COc1ccccc1C(=O)c1cnc(NC2CCNCC2)nc1N` had an IC50 above 14000 nM.
